Earlier results in patent publication US20090060993A1, “SOLID PHARMACEUTICAL COMPOSITION FOR ENHANCED DELIVERY OF COENZYME Q-10 AND UBIQUINONES” (priority 2007, published 2009).

Settings: humans

For `COC1=C(OC)C(=O)C(C/C=C(\C)CC/C=C(\C)CC/C=C(\C)CC/C=C(\C)CC/C=C(\C)CC/C=C(\C)CC/C=C(\C)CC/C=C(\C)CC/C=C(\C)CCC=C(C)C)=C(C)C1=O` [coenzyme Q-10, ubidecarenone], the total absorption is listed as “less than 10%”.
